Results on 22 compounds are retold here after patent publication US7196110B2, “N-substituted tricyclic 3-aminopyrazoles as inhibitors for the treatment of cell proliferative disorders” (Janssen Phamaceutica N.V., priority 2002, dated 2007).

In one test the test system is T47D (breast). In words: Anti-cell proliferation in tumor cells (14C-thymidine incorporation), T47D. It counts as cell-based. The following applies: Homo sapiens, read-out: IC50 on cell proliferation, T47D. As for the experimental part:
The effect of compounds of the invention on cell proliferation in various tumor cells was tested based on incorporation of ^14C-thymidine into DNA of cells.
Similar to those described above in 3a, except that different cells, cell growth medium, and growth supplements were used. Human tumor cell lines derived from various human tissue origins (LoVo from colon, H460 from lung, T47D from breast, PC3 from prostate, A375 from melanoma, AsPC1 from pancreas) were obtained from the American Type Culture Collection (ATCC) and cultured under specified conditions required for each cell type, as provided by ATCC. Complete medium was obtained from Cellgro: Iscove's medium with 10% Fetal Bovine Serium (FBS) (Mediatech, Inc., Herndon, Va. 20171, Cat. No. 10-016-CV).
Tumor cells were seeded at approx. 3000–8000 cells per well in a volume of 100 μl of complete medium. Cells were grown for 24 hours in complete medium, and 1 μl of test compound was serially diluted in 100% DMSO and added to each well. For maximum growth control wells, only 1 μl of 100% DMSO was added. After 24 hours incubation, 20 μl of ^14C-thymidine master mix was added to each well and the ^14C-thymidine master mix was pepared according to the following regimen:
Cells were incubated for an additional 24 hours at 37° C. in medium containing test compound and ^14C-thymidine. Then, the reaction mixture was discarded and the plate was washed 2 times each with 200 μl PBS. Subsequently, each well on the plate was filled with 200 μl of PBS. The top of the plate was sealed with transparent plate sealer and white plate backing sealers were applied to the bottom of plates. The retained ^14C inside each well was measured using a Packard TopCount.
In order to test the potency of inhibition of the present compound, IC50 of an individual compound on the inhibition of tumor cell line proliferation was measured using the above procedure. As used herein, said IC50 refers to the concentration of the test compound at which the amount of tumor cell proliferation is reduced by one-half as compared to the maximum growth control wells without the compound.

The target in test [1] is T1, PDGF-receptor beta enzyme comprising the tyrosine kinase domain (Homo sapiens, UniProt P09619).
T1 construct: from amino acid 545 to 1106 of GenBank Access NO: AAA36427
The test can be described thus: Inhibition of PDGF-receptor kinase activity (cell-free, PLC1 peptide, 33P Flashplate). It counts as biochemical. The following applies: PDGF-R kinase activity; for inhibition at 10 µM: compound at 10 uM, read-out: Percent Inhibition @ 10 uM; for IC50: read-out: IC50. Summed up: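 The IC50 is the inhibitor level halving kinase activity relative to inhibitor-free wells, measured as 33P captured on a streptavidin-bound biotin-PLC1 peptide. The reaction ran 60 min at 30 °C in pH 8 Tris buffer with 1 mM DTT, 5 μM ATP and the 545–1106 kinase-domain enzyme.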

For another test, the target named is c-Abl kinase (Abelson murine leukemia virus, UniProt P00521). In words: Inhibition of c-Abl kinase activity (cell-free, Abl peptide substrate, 33P Flashplate). The class given is biochemical. The note with it: IC50 for the c-Abl kinase activity.
c-Abl kinase, sequence (P00521 115-385): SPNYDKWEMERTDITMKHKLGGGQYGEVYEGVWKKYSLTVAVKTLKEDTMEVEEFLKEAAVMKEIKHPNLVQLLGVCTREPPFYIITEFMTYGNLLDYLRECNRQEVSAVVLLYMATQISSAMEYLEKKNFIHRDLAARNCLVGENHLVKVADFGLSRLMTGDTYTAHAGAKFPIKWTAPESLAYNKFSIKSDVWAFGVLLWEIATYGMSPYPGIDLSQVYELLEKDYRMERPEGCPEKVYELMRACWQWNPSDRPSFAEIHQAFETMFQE

T1 sequence (P09619 545-1106): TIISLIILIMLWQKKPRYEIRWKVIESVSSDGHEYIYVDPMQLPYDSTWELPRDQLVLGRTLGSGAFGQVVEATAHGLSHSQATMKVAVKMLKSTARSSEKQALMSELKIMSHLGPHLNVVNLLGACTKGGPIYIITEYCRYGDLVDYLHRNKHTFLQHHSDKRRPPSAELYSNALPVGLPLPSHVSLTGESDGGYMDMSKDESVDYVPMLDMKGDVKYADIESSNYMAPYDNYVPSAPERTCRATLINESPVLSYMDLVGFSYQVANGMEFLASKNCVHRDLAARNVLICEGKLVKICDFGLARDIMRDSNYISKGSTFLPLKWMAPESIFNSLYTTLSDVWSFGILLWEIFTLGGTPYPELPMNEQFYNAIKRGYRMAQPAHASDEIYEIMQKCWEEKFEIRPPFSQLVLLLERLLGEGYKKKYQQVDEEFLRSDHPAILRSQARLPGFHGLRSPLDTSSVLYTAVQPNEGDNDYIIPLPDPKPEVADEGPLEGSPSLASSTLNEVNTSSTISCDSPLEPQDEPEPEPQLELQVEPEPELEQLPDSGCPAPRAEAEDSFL

Regarding `COc1cc2c(cc1OC)-c1n[nH]c(Nc3cccc(Cl)c3)c1C2` [Compound 4, (3-Chloro-phenyl)-(6,7-dimethoxy-2,4-dihydro-indeno[1,2-c]pyrazol-3-yl)-amine], the IC50 with T47D (breast) is 30 nM. In addition, the inhibition at 10 µM in test [1] was determined as 90%.

As to `OCCCOc1cc2c(cc1OCCCO)-c1n[nH]c(Nc3ccc(F)c(Cl)c3)c1C2` [Compound 389, 3-[3-(3-Chloro-4-fluoro-phenylamino)-7-(3-hydroxy-propoxy)-2,4-dihydro-indeno[1,2-c]pyrazol-6-yloxy]-propan-1-ol], the IC50 on c-Abl kinase was found to be 17 nM. In test [1], the inhibition at 10 µM is 98% and the IC50 stood at 15.1 nM.

As for `COc1cc2c(cc1OCC(O)CN1CCCC1)Cc1c-2n[nH]c1NCc1c(F)cccc1F` (centres unmarked) [Compound 391, 1-[3-(2,6-Difluoro-benzylamino)-7-methoxy-2,4-dihydro-indeno[1,2-c]pyrazol-6-yloxy]-3-pyrrolidin-1-yl-propan-2-ol], the IC50 on c-Abl kinase was found to be 14 nM. In test [1], the inhibition at 10 µM turned out to be 99% and the IC50 turned out to be 6.8 nM.

`COc1cc2c(cc1OCC(O)CN1CCCC1)Cc1c-2n[nH]c1NCc1ccccc1Cl` (centres unmarked) [Compound 396, 1-[3-(2-Chloro-benzylamino)-7-methoxy-2,4-dihydro-indeno[1,2-c]pyrazol-6-yloxy]-3-pyrrolidin-1-yl-propan-2-ol]: the IC50 at c-Abl kinase was found to be 2 nM. Further, in test [1], the inhibition at 10 µM was found to be 99.5% and the IC50 was found to be 5.13 nM.

`OCCCOc1cc2c(cc1OCCCO)-c1n[nH]c(Nc3cccc(F)c3)c1C2` [Compound 398, 3-[3-(3-Fluoro-phenylamino)-6-(3-hydroxy-propoxy)-2,4-dihydro-indeno[1,2-c]pyrazol-7-yloxy]-propan-1-ol]: the IC50 on c-Abl kinase is 10 nM; in test [1], 6.82 nM. The inhibition at 10 µM in test [1] came out at 96%.

Turning to `COc1cccc(Nc2[nH]nc3c2Cc2cc(OCCCO)c(OCCCO)cc2-3)c1` [Compound 400, 3-[7-(3-Hydroxy-propoxy)-3-(3-methoxy-phenylamino)-2,4-dihydro-indeno[1,2-c]pyrazol-6-yloxy]-propan-1-ol], the IC50 at c-Abl kinase was found to be 5 nM. Also, in test [1], the inhibition at 10 µM is 98.5% and the IC50 turned out to be 2.92 nM.

On to `CCOc1cccc(Nc2[nH]nc3c2Cc2cc(OCCCO)c(OCCCO)cc2-3)c1` [Compound 401, 3-[3-(3-Ethoxy-phenylamino)-7-(3-hydroxy-propoxy)-2,4-dihydro-indeno[1,2-c]pyrazol-6-yloxy]-propan-1-ol], for which the IC50 on c-Abl kinase was found to be 14 nM. In test [1], the inhibition at 10 µM was determined as 98.5% and the IC50 was 22 nM.

Turning to `Clc1cccc(Cl)c1CNc1[nH]nc2c1Cc1c(OCCCN3CCOCC3)cccc1-2` [Compound 415, (2,6-Dichloro-benzyl)-[5-(3-morpholin-4-yl-propoxy)-2,4-dihydro-indeno[1,2-c]pyrazol-3-yl]-amine], the IC50 on c-Abl kinase was found to be 219 nM. In addition, in test [1], the inhibition at 10 µM is 98% and the IC50 turned out to be 25.8 nM.

Consider `CCC1c2cc(OC)c(OC)cc2-c2n[nH]c(Nc3cccc(Cl)c3)c21` (centres unmarked) [Compound 419, (3-Chloro-phenyl)-(4-ethyl-6,7-dimethoxy-2,4-dihydro-indeno[1,2-c]pyrazol-3-yl)-amine], for which the IC50 on c-Abl kinase worked out at 292 nM; in test [1], 62.1 nM. In addition, the inhibition at 10 µM in test [1] was 100%.

Take `COc1cccc2c1Cc1c-2n[nH]c1Nc1cccc(F)c1` [Compound 422, (3-Fluoro-phenyl)-(5-methoxy-2,4-dihydro-indeno[1,2-c]pyrazol-3-yl)-amine]: the IC50 is 3080 nM at c-Abl kinase and 29.7 nM in test [1]. Moreover, in test [1], the inhibition at 10 µM was 83%.

`COc1cc2c(cc1OCCCO)Cc1c-2n[nH]c1NCc1c(Cl)cccc1Cl` [Compound 448, 3-[3-(2,6-Dichloro-benzylamino)-7-methoxy-2,4-dihydro-indeno[1,2-c]pyrazol-6-yloxy]-propan-1-ol]: the IC50 at c-Abl kinase stood at 3 nM. Further, in test [1], the inhibition at 10 µM amounted to 100% and the IC50 was determined as 1.77 nM.

Consider `COc1cc2c(cc1OCCCO)Cc1c-2n[nH]c1NCc1c(F)cccc1F` [Compound 449, 3-[3-(2,6-Difluoro-benzylamino)-7-methoxy-2,4-dihydro-indeno[1,2-c]pyrazol-6-yloxy]-propan-1-ol], for which the IC50 on c-Abl kinase turned out to be 23 nM. Further, in test [1], the inhibition at 10 µM came to 98.5% and the IC50 amounted to 4.1 nM.

As to `COc1cc2c(cc1OCC(O)CO)Cc1c-2n[nH]c1NCc1c(F)cccc1F` (centres unmarked) [Compound 457, 3-[3-(2,6-Difluoro-benzylamino)-7-methoxy-2,4-dihydro-indeno[1,2-c]pyrazol-6-yloxy]-propane-1,2-diol], the IC50 was 4 nM at c-Abl kinase and 3.41 nM in test [1]. The inhibition at 10 µM in test [1] is 100%.

Take `CCOC(=O)CC(=O)n1nc(Nc2cccc(F)c2)c2c1-c1cc(OC)c(OC)cc1C2` [Compound 459, 3-[3-(3-Fluoro-phenylamino)-6,7-dimethoxy-4H-indeno[1,2-c]pyrazol-1-yl]-3-oxo-propionic acid ethyl ester]: the IC50 at c-Abl kinase was 70 nM; in test [1], 36.5 nM. In addition, the inhibition at 10 µM in test [1] came out at 100%.

For `CCOc1cc2c(cc1OCC(O)CN1CCCC1)-c1n[nH]c(Nc3cccc(F)c3)c1C2` (centres unmarked) [Compound 460, 1-[6-Ethoxy-3-(3-fluoro-phenylamino)-2,4-dihydro-indeno[1,2-c]pyrazol-7-yloxy]-3-pyrrolidin-1-yl-propan-2-ol], at c-Abl kinase, the IC50 was determined as 4 nM. Also, in test [1], the inhibition at 10 µM came out at 97.5% and the IC50 turned out to be 4.27 nM.

`CCOc1cc2c(cc1OCC(O)CN1CCCC1)-c1n[nH]c(Nc3cccnc3)c1C2` (centres unmarked) [Compound 461, 1-[6-Ethoxy-3-(pyridin-3-ylamino)-2,4-dihydro-indeno[1,2-c]pyrazol-7-yloxy]-3-pyrrolidin-1-yl-propan-2-ol]: the IC50 on c-Abl kinase was found to be 337 nM. In test [1], the inhibition at 10 µM is 97.5% and the IC50 is 7.55 nM.

For the compound `CCOc1cccc(Nc2[nH]nc3c2Cc2cc(OCC)c(OCC(O)CN4CCCC4)cc2-3)c1` (centres unmarked) [Compound 463, 1-[6-Ethoxy-3-(3-ethoxy-phenylamino)-2,4-dihydro-indeno[1,2-c]pyrazol-7-yloxy]-3-pyrrolidin-1-yl-propan-2-ol], the IC50 on c-Abl kinase was found to be 8 nM; in test [1], 11 nM. Also, in test [1], the inhibition at 10 µM came to 98.5%.

For `COc1cc2c(cc1OC)-c1c(c(Nc3cccc(F)c3)nn1C(=O)CCC(=O)O)C2` [Compound 466, 4-[3-(3-Fluoro-phenylamino)-6,7-dimethoxy-4H-indeno[1,2-c]pyrazol-1-yl]-4-oxo-butyric acid], the IC50 on c-Abl kinase worked out at 191 nM; in test [1], 31.1 nM. Besides, in test [1], the inhibition at 10 µM came out at 96%.

On to `COc1cc2c(cc1OC)-c1c(c(Nc3cccc(F)c3)nn1C(=O)COC(C)=O)C2` [Compound 467, Acetic acid 2-[3-(3-fluoro-phenylamino)-6,7-dimethoxy-4H-indeno[1,2-c]pyrazol-1-yl]-2-oxo-ethyl ester], for which the IC50 at c-Abl kinase came to 244 nM; in test [1], 17.6 nM. Further, the inhibition at 10 µM in test [1] came to 96.5%.

Turning to `OCC(O)COc1cccc2c1Cc1c-2n[nH]c1Nc1cccc(Br)c1` (centres unmarked) [Compound 468, 3-[3-(3-Bromo-phenylamino)-2,4-dihydro-indeno[1,2-c]pyrazol-5-yloxy]-propane-1,2-diol], the IC50 on c-Abl kinase came out at 603 nM. Besides, in test [1], the inhibition at 10 µM stood at 95.5% and the IC50 was determined as 47.8 nM.

Consider `OCC(O)COc1cccc2c1Cc1c-2n[nH]c1Nc1cccc(F)c1` (centres unmarked) [Compound 469, 3-[3-(3-Fluoro-phenylamino)-2,4-dihydro-indeno[1,2-c]pyrazol-5-yloxy]-propane-1,2-diol], for which, on c-Abl kinase, the IC50 was 27 nM. In test [1], the inhibition at 10 µM was 96% and the IC50 is 160 nM.

`CCCC(=O)OCn1nc(Nc2cccc(F)c2)c2c1-c1cc(OC)c(OC)cc1C2` [Compound 490, Butyric acid 3-(3-fluoro-phenylamino)-6,7-dimethoxy-4H-indeno[1,2-c]pyrazol-1-ylmethyl ester]: on c-Abl kinase, the IC50 amounted to 38 nM. Besides, in test [1], the inhibition at 10 µM was 96% and the IC50 turned out to be 28.5 nM.

In general, inhibition refers to the share of the control response that was lost under treatment.
